Drawing on BindingDB's records for doi:10.1021/jm070453f (Gnf, 2007), this text covers IC50 and EC50 for four compounds.

Experiment [1] addresses T1, Oxysterols receptor LXR-beta (Homo sapiens, UniProt P55055).
T1 sequence (P55055 whole entry): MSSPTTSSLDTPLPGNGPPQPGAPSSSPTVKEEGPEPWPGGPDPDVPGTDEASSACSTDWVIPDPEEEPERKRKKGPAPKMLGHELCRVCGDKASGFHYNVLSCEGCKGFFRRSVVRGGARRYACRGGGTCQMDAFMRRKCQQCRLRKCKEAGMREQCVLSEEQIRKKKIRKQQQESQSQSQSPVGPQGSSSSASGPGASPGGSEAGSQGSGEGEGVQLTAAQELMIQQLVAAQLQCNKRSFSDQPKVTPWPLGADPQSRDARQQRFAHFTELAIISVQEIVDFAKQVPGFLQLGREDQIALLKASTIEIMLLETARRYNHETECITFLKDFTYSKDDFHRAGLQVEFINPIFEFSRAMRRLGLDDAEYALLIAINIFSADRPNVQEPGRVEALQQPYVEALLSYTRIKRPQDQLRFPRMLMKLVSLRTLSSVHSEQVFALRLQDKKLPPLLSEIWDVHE
Description: Scintillation Proximity Assay. The method, then: (§1) SPA assays were run in displacement mode using 30 nM [3H]-GW3965. Ligands were tested in 12-point dose-response curves starting at 20 uM. IC50 values were determined from dose-response and competition curves, which were generated by nonlinear regression analysis using GraphPad Prism.

The target in experiment [2] is T2, Oxysterols receptor LXR-alpha (Homo sapiens, UniProt Q13133).
T2 sequence (Q13133 whole entry): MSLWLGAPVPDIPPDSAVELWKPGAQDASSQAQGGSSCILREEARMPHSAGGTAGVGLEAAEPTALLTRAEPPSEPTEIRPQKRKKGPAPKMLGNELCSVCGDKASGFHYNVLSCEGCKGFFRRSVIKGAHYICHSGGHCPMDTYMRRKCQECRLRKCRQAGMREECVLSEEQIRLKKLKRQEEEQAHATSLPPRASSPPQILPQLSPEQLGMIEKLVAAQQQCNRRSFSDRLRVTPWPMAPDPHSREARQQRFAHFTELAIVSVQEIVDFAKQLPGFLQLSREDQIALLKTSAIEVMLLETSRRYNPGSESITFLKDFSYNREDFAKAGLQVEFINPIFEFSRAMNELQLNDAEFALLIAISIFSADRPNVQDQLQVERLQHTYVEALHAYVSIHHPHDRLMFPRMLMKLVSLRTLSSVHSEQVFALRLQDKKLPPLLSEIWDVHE
Description: Scintillation Proximity Assay. The method, then:
as §1
(Scintillation proximity formats need no separation of bound from free tracer.)

Experiment [3] has as its target T1, Oxysterols receptor LXR-beta. The experiment is described as follows: Fluorescence-Resonance Energy Transfer Assay. As to conditions: pH 7.2; 37 °C. The method, then:
(§2) FRET-based co-activator recruitment assay measures agonist activities in a 384-well plate format. Reaction mixture containing His-tagged hLXR, biotinylated SRC-1 peptide, Europiumlabeled anti-His antibody, and allophycocyaninlabeled streptavidin (Prozyme) was prepared. Ligands were tested in 12-point dose-response curves, and FRET was read on an AnalystGT (Molecular Devices).

For experiment [4], the target named is T2, Oxysterols receptor LXR-alpha. Description: Fluorescence-Resonance Energy Transfer Assay. As to conditions: pH 7.2; 37 °C. The method, then: as §2

As a reminder, the IC50 is the midpoint of a concentration-inhibition curve. Lower therefore signals greater potency in that assay. Take `COc1cccc([C@H]2SC(c3ccc(Cl)cc3)=NN2C(=O)c2c(F)cc(F)cc2F)c1OC` [(2R)-5-(4-chlorophenyl)-2-(2,3-dimethoxyphenyl)-3-[(2,4,6-trifluorophenyl)carbonyl]-2,3-dihydro-1,3,4-thiadiazole]: the results for the IC50 in experiment [1] and in experiment [2] were 66 nM and 5 µM, respectively.

One may read the EC50 as the concentration needed to bring the measured effect to its halfway point. Read a low EC50 as an effect from little substance. Consider `COc1cccc(C2SC(c3ccc(Cl)cc3)=NN2C(=O)c2c(F)cc(F)cc2F)c1OC` (racemic) [5-(4-chlorophenyl)-2-(2,3-dimethoxyphenyl)-3-[(2,4,6-trifluorophenyl)carbonyl]-2,3-dihydro-1,3,4-thiadiazole], for which the IC50 in experiment [1] was determined as 300 nM; in experiment [2], 9.8 µM. This compound had an EC50 in experiment [3] of 300 nM.

With `O=C(O)Cc1cccc(OCCCN(Cc2cccc(C(F)(F)F)c2Cl)CC(c2ccccc2)c2ccccc2)c1` [2-{3-[3-({[2-chloro-3-(trifluoromethyl)phenyl]methyl}(2,2-diphenylethyl)amino)propoxy]phenyl}acetic acid], the IC50 was found to be 23 nM in experiment [1] and 0.121 µM in experiment [2].

As to `COc1ncccc1C1SC(c2ccc(F)cc2)=NN1C(=O)c1c(F)cc(F)cc1F` (centres undefined) [5-(4-fluorophenyl)-2-(2-methoxypyridin-3-yl)-3-[(2,4,6-trifluorophenyl)carbonyl]-2,3-dihydro-1,3,4-thiadiazole], the values for the EC50 in experiment [3] and in experiment [4] were 210 nM and 400 nM, respectively.
